Experiments:
[1] = system: rat middle cerebral artery occlusion model; details: pretreatment with melatonin; cited from earlier work
neutrophils = details: in vitro; apoptosis delayed following hepatectomy; cited from earlier work
mice = details: short term administration after surgery-induced hemorrhagic shock, mice subjected to septic challenge; cited from earlier work
neonates = details: treatment started within 3 hours after the end of surgery; cited from earlier work
[2] = system: female Sprague Dawley rats; assay: Partial liver resection with ischemia/reperfusion in rats, preoperative melatonin by gavage; type: in vivo, rat
Description: Ischemia and subsequent reperfusion of organs and tissues induced by clamping of blood vessels to prevent excessive bleeding, are unavoidable during surgical procedures. Such a standard ischemia/reperfusion situation can be simulated by a partial hepatectomy in a clinically relevant rat surgical model.
In this animal model, female Sprague Dawley rats (200-220 g) undergo a median laparotomy followed by clamping of the right lateral liver lobe for 20 min resulting in a hypoxia in about 30% of the entire organ. After reperfusion of the ischemic tissue, the remaining 70% of the liver, the non-ischemic middle and left lateral liver lobes are surgically removed and the surgical incision is closed. During a follow up period of maximal 7 days the effects of ischemia/reperfusion are observed with respect to liver damage and survival.
In this rat model the operative trauma of performing a laparotomy introduces a first hypoxia in the liver. The subsequent partial clamping of the blood supply to the liver and the following partial resection of a large part of liver tissue results in additional ischemia. During the subsequent reperfusion the actual free radical-induced damage to the liver tissue occurs. This actual damage to many cells of the liver tissue in regions of the remaining parts of the organ is now determined by the release of enzymes such as liver transaminases, alkaline phosphatase after various time points following partial liver resection.
After reperfusion of the ischemic tissue, the remaining 70% of the liver, the non-ischemic middle and the left lateral liver lobes were surgically removed and the surgical incision was closed.
In this rat model the operative trauma of performing a laparotomy introduced a first hypoxia in the liver. […] During the subsequent reperfusion the actual free radical-induced damage to the liver tissue occurred. This actual damage to many cells of the liver tissue in regions of the remaining parts of the organ was now determined by the release of enzymes such as liver transaminases (AST, ALT) and alkaline phosphatase after various time points following partial liver resection.
Melatonin was administered in various concentrations (0, 10, 20, 50 mg/kg body weight) by gavage of a control (5% ethanol in water; 0 mg/kg body weight melatonin) or a melatonin-containing aqueous solution (5% ethanol) into the stomach of the 10 rats of each of the four groups 2 hours before the surgery.

[3] = 10, 20, 50 mg/kg body weight by gavage 2 hours before surgery, 3 and 8 h after partial liver resection, vs control, FIG. 1

COc1ccc2[nH]cc(CCNC(C)=O)c2c1 [Melatonin, N-acetyl-5-methoxytryptamin]
volume of cerebral infarction [1]: reduce the volume of cerebral infarction | apoptosis activity in neutrophils (neutrophils): enhances apoptosis activity in neutrophils | survival (mice): significantly improved survival | clinical parameters of inflammation (neonates): progressive reduction of clinical parameters of inflammation | survival after 7 days ([2]; 10 mg/kg body weight preoperatively, vs control, FIG. 3): significant increase in survival | alkaline phosphatase (ALP) activity (indicates regeneration of the liver) ([2]; 50 mg/kg body weight preoperatively, 3, 8, 48 h and 1 week after partial liver resection, vs control, FIG. 2): increased ALP activity after 48 h reaching statistical significance after 1 week | level of alanine transferase (ALT) [2, 3]: amelioration of the massive increase | level of aspartate transferase (AST) [2, 3]: amelioration of the massive increase | hypoxia of liver tissue ([2]; preoperative application, partial liver resection in rats): reduces the increase in hypoxia of liver tissue | extent of necrosis following ischemia/reperfusion of the liver ([2]; preoperative application, rats): reduces the extent of necrosis

Source: patent US20140249198A1, “MELATONIN AND ITS USE IN PREVENTING POSTOPERATIVE COMPLICATIONS” (NUTRI-FIT GMBH & CO., KG, priority 2004, published 2014)
